{
  "source": "paper PMC11966994",
  "about": "(Emerging Microbes & Infections, 2025)",
  "key": {"IFNα/β mRNA": {"system": "IFNα/β mRNA", "assay_type": "cell-based"}, "in vitro [1]": {"experiment": "in vitro", "conditions": "human"}, "[2]": {"conditions": "rat, in vivo, 10 mg/kg; cited from earlier work"}, "influenza virus": {"system": "influenza virus", "assay_type": "cell-based"}, "in vitro [3]": {"experiment": "in vitro", "conditions": "African green monkey"}},
  "data": [
    {"smiles": "O=C(O[C@@H]1[C@@H](O)[C@H](Oc2cc(O)c(C(=O)CCc3ccccc3)c(O)c2)O[C@@H]2COC(=O)c3cc(O)c(O)c(O)c3-c3c(cc(O)c(O)c3O)C(=O)O[C@@H]12)c1cc(O)c(O)c(O)c1", "note": "[Compound 46, Thonningianin A]", "values": [
      {"measurement": "effect on IFNα/β mRNA expression levels", "setting": "IFNα/β mRNA", "value": "did not significantly affect"},
      {"measurement": "CC50", "setting": "in vitro [1]", "value": 20.2, "unit": "µM"},
      {"measurement": "t₁/₂", "setting": "[2]", "value": 3.69, "unit": "h"},
      {"measurement": "effect on influenza virus replication", "setting": "influenza virus", "value": "did not significantly affect"},
      {"measurement": "CC50", "setting": "in vitro [3]", "value": 10.6, "unit": "µM"}
    ]}
  ]
}
